What was measured:
[1] = system: giant foxtail; experiment: Test B pre/postemergence giant foxtail; format: in vivo, Setaria faberii
How it was run: (§1)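 Test chemicals in a non-phytotoxic solvent mixture with surfactant were sprayed preemergence onto planted seeds and postemergence onto plants 2 to 18 cm tall (1- to 4-leaf stage). After twelve to sixteen days in a greenhouse, injury was visually rated against untreated controls from 0 (no effect) to 10 (complete control).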

[2] = system: morningglory; experiment: Test B pre/postemergence morningglory; format: in vivo, Ipomoea hederacea
How it was run: as §1

[3] = system: bamyardgrass; experiment: Test B flood test barnyardgrass; format: in vivo, Echinochloa crus-galli
How it was run: (§2)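 Plants were grown to the 2-leaf stage before treatment with test chemical, then held in a greenhouse for twelve to sixteen days. Injury was visually rated against untreated controls on a 0–10 scale, where 0 is no effect and 10 is complete control.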

[4] = system: purple nutsedge; experiment: Test B pre/postemergence purple nutsedge; format: in vivo, Cyperus rotundus
How it was run: as §1

[5] = system: corn; experiment: Test B pre/postemergence corn; format: in vivo, Zea mays
How it was run: as §1

[6] = system: rice; experiment: Test B flood test rice; format: in vivo, Oryza sativa
How it was run: as §2

[7] = system: rape; experiment: Test B pre/postemergence rape; format: in vivo, Brassica napus
How it was run: as §1

[8] = system: velvetleaf; experiment: Test B pre/postemergence velvetleaf; format: in vivo, Abutilon theophrasti
How it was run: as §1

[9] = system: pigweed; experiment: Test B pre/postemergence pigweed; format: in vivo, Amaranthus retroflexus
How it was run: as §1

[10] = system: smallflower flatsedge; experiment: Test B flood test smallflower flatsedge; format: in vivo, Cyperus difformis
How it was run: as §2

[11] = system: duck salad; experiment: Test B flood test duck salad; format: in vivo, Heteranthera limosa
How it was run: as §2

[12] = system: sugar beet; experiment: Test B pre/postemergence sugar beet; format: in vivo, Beta vulgaris
How it was run: as §1

[13] = system: bedstraw; experiment: Test B pre/postemergence bedstraw; format: in vivo, Galium aparine; settings: Preemergence
How it was run: as §1

[14] = system: cocklebur; experiment: Test B pre/postemergence cocklebur; format: in vivo, Xanthium strumarium
How it was run: as §1

[15] = system: wild oat; experiment: Test B pre/postemergence wild oat; format: in vivo, Avena fatua
How it was run: as §1

[16] = system: soybean; experiment: Test B pre/postemergence soybean; format: in vivo, Glycine max
How it was run: as §1

[17] = system: surinam grass; experiment: Test B pre/postemergence surinam grass; format: in vivo, Brachiaria decumbens
How it was run: as §1

[18] = system: blackgrass; experiment: Test B pre/postemergence blackgrass; format: in vivo, Alopecurus myosuroides
How it was run: as §1

[19] = system: crabgrass; experiment: Test B pre/postemergence crabgrass; format: in vivo, Digitaria sanguinalis
How it was run: as §1

[20] = system: wheat; experiment: Test B pre/postemergence wheat; format: in vivo, Triticum aestivum
How it was run: as §1

[21] = Postemergence, Rate 62 g/ha, scale 0 to 10, 0 is no effect, 10 is complete control
[22] = Postemergence, Rate 125 g/ha, scale of 0 to 10 where 0 is no effect and 10 is complete control
[23] = Postemergence, Rate 500 g/ha, scale 0 (no effect) to 10 (complete control)
[24] = Preemergence, Rate 250 g/ha, scale 0 (no effect) to 10 (complete control)
[25] = Rate 62 g/ha, Preemergence, scale 0 to 10
[26] = Rate 125 g/ha, Preemergence, scale 0 to 10 (0 no effect, 10 complete control)
[27] = Rate 250 g/ha, Postemergence, scale 0 to 10, 0 is no effect, 10 is complete control
[28] = Rate 500 g/ha, Preemergence, scale 0 to 10 (0 no effect, 10 complete control)
[29] = Pre-emergence, Rate 62 g/ha, scale 0 to 10, 0 is no effect, 10 is complete control
[30] = Rate 125 g/ha, Pre-emergence section (flood test species), scale 0 to 10, 0 no effect, 10 complete control
[31] = Rate 250 g/ha, Pre-emergence (flood test species), scale 0 to 10, 0 is no effect, 10 is complete control
[32] = Rate 500 g/ha, Pre-emergence section of Table B, 0 to 10 scale (0 no effect, 10 complete control)

CC(C)N(C(=O)n1oc(=O)n(CC2=NOCCO2)c1=O)c1ccc(F)cc1 [Compound 765]
Plant response rating, Giant foxtail [1, 21]: 5
Giant foxtail plant response rating [1, 22]: 8
Giant foxtail plant response rating [1, 23]: 9
Giant foxtail plant response rating [1, 24]: 10
Giant foxtail plant response rating [1, 25]: 9
Giant foxtail plant response rating [1, 26]: 10
Giant foxtail plant response rating [1, 27]: 9
Giant foxtail plant response rating [1, 28]: 10
Plant response rating, Morningglory [2, 21]: 5
Morningglory plant response rating [2, 22]: 6
Morningglory plant response rating [2, 23]: 8
Morningglory plant response rating [2, 25]: 0
Morningglory plant response rating [2, 26]: 0
Morningglory plant response rating [2, 27]: 6
Morningglory plant response rating [2, 28]: 0
Barnyardgrass plant response rating [3, 29]: 0
Barnyardgrass plant response rating [3, 30]: 0
Barnyardgrass plant response rating [3, 31]: 0
Barnyardgrass plant response rating [3, 32]: 0
Plant response rating, Nutsedge [4, 21]: 0
Nutsedge plant response rating [4, 22]: 0
Nutsedge plant response rating [4, 23]: 3
Nutsedge plant response rating [4, 25]: 0
Nutsedge plant response rating [4, 27]: 0
Nutsedge plant response rating [4, 28]: 0
Plant response rating, Corn [5, 21]: 0
Corn plant response rating [5, 22]: 0
Corn plant response rating [5, 23]: 3
Corn plant response rating [5, 24]: 0
Corn plant response rating [5, 25]: 0
Corn plant response rating [5, 26]: 0
Corn plant response rating [5, 27]: 0
Corn plant response rating [5, 28]: 2
Rice plant response rating [6, 29]: 0
Rice plant response rating [6, 30]: 0
Rice plant response rating [6, 31]: 0
Rice plant response rating [6, 32]: 0
Plant response rating, Rape [7, 21]: 0
Rape plant response rating [7, 22]: 0
Rape plant response rating [7, 23]: 1
Rape plant response rating [7, 25]: 2
Rape plant response rating [7, 27]: 0
Rape plant response rating [7, 28]: 8
Plant response rating, Velvetleaf [8, 21]: 6
Velvetleaf plant response rating [8, 23]: 7
Velvetleaf plant response rating [8, 25]: 0
Velvetleaf plant response rating [8, 26]: 4
Velvetleaf plant response rating [8, 27]: 7
Velvetleaf plant response rating [8, 28]: 7
Plant response rating, Redroot pigweed [9, 21]: 6
Redroot pigweed plant response rating [9, 22]: 7
Redroot pigweed plant response rating [9, 23]: 8
Redroot pigweed plant response rating [9, 25]: 8
Redroot pigweed plant response rating [9, 28]: 10
S. Flatsedge plant response rating [10, 29]: 0
S. Flatsedge plant response rating [10, 30]: 0
S. Flatsedge plant response rating [10, 31]: 0
S. Flatsedge plant response rating [10, 32]: 0
Ducksalad plant response rating [11, 29]: 0
Ducksalad plant response rating [11, 30]: 0
Ducksalad plant response rating [11, 31]: 0
Ducksalad plant response rating [11, 32]: 0
Plant response rating, Sugarbeets [12, 21]: 0
Sugarbeets plant response rating [12, 23]: 4
Sugarbeets plant response rating [12, 25]: 6
Sugarbeets plant response rating [12, 27]: 0
Sugarbeets plant response rating [12, 28]: 9
Bedstraw plant response rating ([13]; Rate 250 g/ha, scale 0 (no effect) to 10 (complete control)): 2
Bedstraw plant response rating ([13]; Rate 62 g/ha, scale 0 to 10): 0
Bedstraw plant response rating ([13]; Rate 500 g/ha, scale 0 to 10 (0 no effect, 10 complete control)): 8
Plant response rating, Cocklebur [14, 21]: 0
Cocklebur plant response rating [14, 22]: 0
Cocklebur plant response rating [14, 23]: 3
Cocklebur plant response rating [14, 24]: 0
Cocklebur plant response rating [14, 25]: 0
Cocklebur plant response rating [14, 26]: 0
Cocklebur plant response rating [14, 27]: 0
Cocklebur plant response rating [14, 28]: 0
Plant response rating, Wild oats [15, 21]: 0
Wild oats plant response rating [15, 23]: 2
Wild oats plant response rating [15, 25]: 4
Wild oats plant response rating [15, 27]: 0
Wild oats plant response rating [15, 28]: 9
Plant response rating, Soybean [16, 21]: 2
Soybean plant response rating [16, 23]: 5
Soybean plant response rating [16, 25]: 0
Soybean plant response rating [16, 26]: 0
Soybean plant response rating [16, 27]: 5
Soybean plant response rating [16, 28]: 0
Plant response rating, B. signalgrass [17, 21]: 3
B. signalgrass plant response rating [17, 22]: 7
B. signalgrass plant response rating ([17]; Preemergence, Rate 62 g/ha, scale of 0 to 10 where 0 is no effect and 10 is complete control): 5
B. signalgrass plant response rating [17, 24]: 7
B. signalgrass plant response rating [17, 27]: 7
B. signalgrass plant response rating ([17]; Rate 500 g/ha, Postemergence, scale 0 to 10, 0 is no effect, 10 is complete control): 8
B. signalgrass plant response rating [17, 28]: 7
Plant response rating, Blackgrass [18, 21]: 3
Blackgrass plant response rating [18, 22]: 5
Blackgrass plant response rating [18, 23]: 7
Blackgrass plant response rating [18, 24]: 8
Blackgrass plant response rating [18, 25]: 7
Blackgrass plant response rating [18, 27]: 7
Blackgrass plant response rating [18, 28]: 9
Plant response rating, Crabgrass [19, 21]: 3
Crabgrass plant response rating [19, 22]: 5
Crabgrass plant response rating [19, 23]: 9
Crabgrass plant response rating [19, 24]: 10
Crabgrass plant response rating [19, 25]: 9
Crabgrass plant response rating [19, 26]: 10
Crabgrass plant response rating [19, 27]: 7
Crabgrass plant response rating [19, 28]: 10
Plant response rating, Wheat [20, 21]: 0
Wheat plant response rating [20, 23]: 5
Wheat plant response rating [20, 25]: 3
Wheat plant response rating [20, 27]: 3
Wheat plant response rating [20, 28]: 8

Reference: US6737383B1, “Herbicidal oxadiazolidines” (priority 1999, dated 2004)
